Results as given in PubChem BioAssay AID1259407 (Chemical Carcinogenesis Research Information System (CCRIS), 2018).
Active and inactive are the calls of the source. How the calls were made is not given here.

System: CCRIS mutagenicity, Ames/micronucleus/aberration tests
Assay: CCRIS mutagenicity studies
[1] = Test System: AMES SALMONELLA TYPHIMURIUM, Strain/Indicator: TA98, Metabolic Activation: HAMSTER, LIVER, S-9, AROCLOR 1254 (10%), Method: PREINCUBATION
[2] = Test System: AMES SALMONELLA TYPHIMURIUM, Strain/Indicator: TA98, Metabolic Activation: NONE, Method: PREINCUBATION
[3] = Test System: AMES SALMONELLA TYPHIMURIUM, Strain/Indicator: TA98, Metabolic Activation: RAT, LIVER, S-9, AROCLOR 1254 (10%), Method: PREINCUBATION
[4] = Test System: AMES SALMONELLA TYPHIMURIUM, Strain/Indicator: TA100, Metabolic Activation: HAMSTER, LIVER, S-9, AROCLOR 1254 (10%), Method: PREINCUBATION
[5] = Test System: AMES SALMONELLA TYPHIMURIUM, Strain/Indicator: TA100, Metabolic Activation: NONE, Method: PREINCUBATION
[6] = Test System: AMES SALMONELLA TYPHIMURIUM, Strain/Indicator: TA100, Metabolic Activation: NONE, Method: STANDARD PLATE
[7] = Test System: AMES SALMONELLA TYPHIMURIUM, Strain/Indicator: TA100, Metabolic Activation: RAT, LIVER, S-9, AROCLOR 1254 (10%), Method: PREINCUBATION
[8] = Test System: AMES SALMONELLA TYPHIMURIUM, Strain/Indicator: TA100, Metabolic Activation: RAT, LIVER, S-9, AROCLOR 1254, Method: STANDARD PLATE
[9] = Test System: AMES SALMONELLA TYPHIMURIUM, Strain/Indicator: TA1535, Metabolic Activation: HAMSTER, LIVER, S-9, AROCLOR 1254 (10%), Method: PREINCUBATION
[10] = Test System: AMES SALMONELLA TYPHIMURIUM, Strain/Indicator: TA1535, Metabolic Activation: NONE, Method: PREINCUBATION
[11] = Test System: AMES SALMONELLA TYPHIMURIUM, Strain/Indicator: TA1535, Metabolic Activation: RAT, LIVER, S-9, AROCLOR 1254 (10%), Method: PREINCUBATION
[12] = Test System: AMES SALMONELLA TYPHIMURIUM, Strain/Indicator: TA1537, Metabolic Activation: HAMSTER, LIVER, S-9, AROCLOR 1254 (10%), Method: PREINCUBATION
[13] = Test System: AMES SALMONELLA TYPHIMURIUM, Strain/Indicator: TA1537, Metabolic Activation: NONE, Method: PREINCUBATION
[14] = Test System: AMES SALMONELLA TYPHIMURIUM, Strain/Indicator: TA1537, Metabolic Activation: RAT, LIVER, S-9, AROCLOR 1254 (10%), Method: PREINCUBATION
[15] = Test System: AMES SALMONELLA TYPHIMURIUM, Strain/Indicator: TA100, Metabolic Activation: RAT, LIVER, S-9, AROCLOR 1254, Method: PREINCUBATION
[16] = Test System: AMES SALMONELLA TYPHIMURIUM, Strain/Indicator: TA98, Metabolic Activation: NONE, Method: STANDARD PLATE
[17] = Test System: AMES SALMONELLA TYPHIMURIUM, Strain/Indicator: TA98, Metabolic Activation: RAT, LIVER, S-9, AROCLOR 1254, Method: STANDARD PLATE
[18] = Test System: AMES SALMONELLA TYPHIMURIUM, Strain/Indicator: TA97, Metabolic Activation: NONE, Method: PREINCUBATION

Measured: mutagenic call

C=C(C#N)C(=O)OC
inactive: [1] inactive; negative | [2] inactive; negative | [3] inactive; negative | [9] inactive; negative | [10] inactive; negative | [11] inactive; negative | [12] inactive; negative | [13] inactive; negative | [14] inactive; negative
active: [4] active; positive | [5] active; positive | Test System: AMES SALMONELLA TYPHIMURIUM, Strain/Indicator: TA100, Metabolic Activation: NONE, Method: SPOT TEST active; positive | [6] active; positive | [7] active; positive | Test System: AMES SALMONELLA TYPHIMURIUM, Strain/Indicator: TA100, Metabolic Activation: RAT, LIVER, S-9, AROCLOR 1254, Method: SPOT TEST active; positive | [8] active; positive

CC(=O)OCc1ccc([N+](=O)[O-])cc1
active: [5] active; positive | [15] active; positive
inactive: [2] inactive; negative | Test System: AMES SALMONELLA TYPHIMURIUM, Strain/Indicator: TA100(NR), Metabolic Activation: NONE, Method: PREINCUBATION inactive; negative

CCCCCCCCCCCCS
inactive: [1] inactive; negative | Test System: AMES SALMONELLA TYPHIMURIUM, Strain/Indicator: TA98, Metabolic Activation: HAMSTER, LIVER, S-9, AROCLOR 1254, Method: STANDARD PLATE inactive; negative | [2] inactive; negative | [16] inactive; negative | [3] inactive; negative | [17] inactive; negative | [4] inactive; negative | Test System: AMES SALMONELLA TYPHIMURIUM, Strain/Indicator: TA100, Metabolic Activation: HAMSTER, LIVER, S-9, AROCLOR 1254, Method: STANDARD PLATE inactive; negative | [5] inactive; negative | [6] inactive; negative | [7] inactive; negative | [8] inactive; negative | [9] inactive; negative | Test System: AMES SALMONELLA TYPHIMURIUM, Strain/Indicator: TA1535, Metabolic Activation: HAMSTER, LIVER, S-9, AROCLOR 1254, Method: STANDARD PLATE inactive; negative | [10] inactive; negative | Test System: AMES SALMONELLA TYPHIMURIUM, Strain/Indicator: TA1535, Metabolic Activation: NONE, Method: STANDARD PLATE inactive; negative | [11] inactive; negative | Test System: AMES SALMONELLA TYPHIMURIUM, Strain/Indicator: TA1535, Metabolic Activation: RAT, LIVER, S-9, AROCLOR 1254, Method: STANDARD PLATE inactive; negative | [12] inactive; negative | Test System: AMES SALMONELLA TYPHIMURIUM, Strain/Indicator: TA1537, Metabolic Activation: HAMSTER, LIVER, S-9, AROCLOR 1254, Method: STANDARD PLATE inactive; negative | [13] inactive; negative | Test System: AMES SALMONELLA TYPHIMURIUM, Strain/Indicator: TA1537, Metabolic Activation: NONE, Method: STANDARD PLATE inactive; negative | [14] inactive; negative | Test System: AMES SALMONELLA TYPHIMURIUM, Strain/Indicator: TA1537, Metabolic Activation: RAT, LIVER, S-9, AROCLOR 1254, Method: STANDARD PLATE inactive; negative | Test System: AMES SALMONELLA TYPHIMURIUM, Strain/Indicator: TA1538, Metabolic Activation: HAMSTER, LIVER, S-9, AROCLOR 1254, Method: STANDARD PLATE inactive; negative | Test System: AMES SALMONELLA TYPHIMURIUM, Strain/Indicator: TA1538, Metabolic Activation: NONE, Method: STANDARD PLATE inactive; negative | Test System: AMES SALMONELLA TYPHIMURIUM, Strain/Indicator: TA1538, Metabolic Activation: RAT, LIVER, S-9, AROCLOR 1254, Method: STANDARD PLATE inactive; negative | Test System: MOUSE LYMPHOMA, Strain/Indicator: L5178Y (TK+/TK-), Metabolic Activation: NONE, Method: SUSPENSION/PLATE inactive; negative. reevaluation of results: negative | Test System: MOUSE LYMPHOMA, Strain/Indicator: L5178Y (TK+/TK-), Metabolic Activation: RAT, LIVER, S-9, AROCLOR 1254, Method: SUSPENSION/PLATE inactive; negative. reevaluation of results: negative

CC(Cl)(Cl)[N+](=O)[O-]
active: Test System: AMES SALMONELLA TYPHIMURIUM, Strain/Indicator: TA97, Metabolic Activation: HAMSTER, LIVER, S-9, AROCLOR 1254 (10%), Method: PREINCUBATION active; positive | [18] active; positive | Test System: AMES SALMONELLA TYPHIMURIUM, Strain/Indicator: TA97, Metabolic Activation: RAT, LIVER, S-9, AROCLOR 1254 (10%), Method: PREINCUBATION active; positive | [4] active; positive | [7] active; positive
inactive: [1] inactive; negative | [2] inactive; negative | [3] inactive; negative | [5] inactive; negative | [9] inactive; negative | [10] inactive; negative | [11] inactive; negative

Cc1c(C)c2c(Cl)c3ccccc3nc2c2ccccc12
active: [18] active; positive | Test System: AMES SALMONELLA TYPHIMURIUM, Strain/Indicator: TA97, Metabolic Activation: NONE, Method: STANDARD PLATE active; positive | [2] active; positive | [13] active; positive

O=C(c1ccccc1)C1OC1c1ccc(-c2ccccc2)cc1 (stereo not drawn)
inactive: [16] inactive; negative | [17] inactive; negative | [6] inactive; negative | [8] inactive; negative

COc1ccc2c(c1)nc(N)n2C
active: Test System: AMES SALMONELLA TYPHIMURIUM, Strain/Indicator: TA98, Metabolic Activation: RAT, LIVER, S-9, AROCLOR 1254, Method: PREINCUBATION active; positive | [15] active; positive

ONc1ccc(Oc2ccccc2)cc1
active: [16] active; positive | [6] active; positive
